Tested on: ALP in NHAC (normal human articular chondrocytes)
Test: Alkaline Phosphatase (ALP) activity assay: ALP staining and quantitation in NHACs (prevention of chondrocyte hypertrophy)
Assay type: cell-based
Details: Chondrocyte, 288 h, human IL-1 beta 10 ng/mL, 12 days; for IC50: Fast Blue RR staining, high content imaging; for Emax: read-out: ALP in NHAC (% Efficacy)
Description: The compounds of the present invention were evaluated in the Alkaline Phosphatase (ALP) activity assay to determine the ability of the compounds to prevent chondrocyte hypertrophy in normal human articular chondrocytes (NHACs).
Normal human articular chondrocytes (NHACs) were purchased from PromoCell (Heidelberg, Germany) and grown in Chondrocyte Growth Medium (CGM; Lonza, Walkersville, Md.).
NHACs were expanded in Chondrocyte Growth Medium (CGM) from Lonza until they reached a 60-80% confluency. To initiate differentiation, 7,500 cells were plated/well with indicated test compound dose in 384-well Cell Carrier Ultra plates (Perkin Elmer) with DMEM (SH30022—HyClone) containing 10% FBS (35-015-CV—Corning), 1% Pen/Strep antibiotics (SV30010—HyClone), and 1% Normocin (50 mg/mL—InvivoGen). Cells with test compounds were incubated at 37° C., 5% CO2 for 5 hours and then added human IL-1 beta (AF-200-1B—Peprotech) to each well at a final concentration of 10 ng/mL and incubated at 37° C., 5% CO2 for 12 days.
To detect the presence of hypertrophic cells, NHACs were fixed with 4% paraformaldehyde and Hoechst 33342 (Invitrogen) dye for 30 minutes, rinsed in PBS, then stained with Fast Blue RR Salt (F0500—Sigma) with Naphthol AS-MX Phosphate Alkaline Solution, 0.25% (855—Sigma-Aldrich).
The staining was imaged by fluoresecent microscopy, using the 561 nm wavelength, and/or quantified by high content imaging with the ImageXpress Confocal (Molecular Devices, Sunnyvale, CA). Data analyses were performed with a customized multiwavelength cell-scoring application The activity of the compounds of the present invention in the ALP assay is summarized in Table 2.

Row | SMILES | IC50 | Emax
1 | COc1cc([C@@]23C[C@]2(C(=O)Nc2cc(C(F)(F)F)c(Cl)cn2)[C@H]2C[C@H](O)[C@@H]3O2)ccn1 (racemic) [Example 22, rac-(1R,2R,4S,5R,6S)—N-(5-chloro-4-(trifluoromethyl)pyridin-2-yl)-6-hydroxy-4-(2-methoxypyridin-4-yl)-8-oxatricyclo[3.2.1.02,4]octane-2-carboxamide] | > 30 µM | 27%
2 | COc1cc([C@@]23C[C@]2(C(=O)Nc2cc(C(F)(F)F)cc(C4CC4)n2)[C@H]2C[C@H](O)[C@@H]3O2)ccn1 (racemic) [Example 23, rac-(1R,2R,4S,5R,6S)—N-(6-cyclopropyl-4-(trifluoromethyl)pyridin-2-yl)-6-hydroxy-4-(2-methoxypyridin-4-yl)-8-oxatricyclo[3.2.1.02,4]octane-2-carboxamide] | > 30 µM | 4%
3 | COc1cc([C@@]23C[C@]2(C(=O)Nc2cc(C(F)(F)F)cc(C)n2)[C@H]2C[C@H](O)[C@@H]3O2)ccn1 (racemic) [Example 24, rac-(1R,2R,4S,5R,6S)-6-hydroxy-4-(2-methoxypyridin-4-yl)-N-(6-methyl-4-(trifluoromethyl)pyridin-2-yl)-8-oxatricyclo[3.2.1.02,4]octane-2-carboxamide] | > 30 µM | 25%
4 | CCOc1cc(C(F)(F)F)cc(NC(=O)[C@]23C[C@@]2(c2ccnc(OC)c2)[C@H]2O[C@@H]3C[C@@H]2O)n1 (racemic) [Example 25, rac-(1R,2R,4S,5R,6S)—N-(6-ethoxy-4-(trifluoromethyl)pyridin-2-yl)-6-hydroxy-4-(2-methoxypyridin-4-yl)-8-oxatricyclo[3.2.1.02,4]octane-2-carboxamide] | > 30 µM | 0%
5 | COc1cc([C@@]23C[C@]2(C(=O)Nc2cccc(C(F)(F)F)c2)[C@H]2C[C@H](O)[C@@H]3O2)ccn1 (racemic) [Example 26, rac-(1R,2R,4S,5R,6S)-6-hydroxy-4-(2-methoxypyridin-4-yl)-N-(3-(trifluoromethyl)phenyl)-8-oxatricyclo[3.2.1.02,4]octane-2-carboxamide] | > 30 µM | 5%
6 | COc1cc([C@@]23C[C@]2(C(=O)Nc2cccc(C(F)(F)F)c2C)[C@H]2C[C@H](O)[C@@H]3O2)ccn1 (racemic) [Example 27, rac-(1R,2R,4S,5R,6S)-6-hydroxy-4-(2-methoxypyridin-4-yl)-N-(2-methyl-3-(trifluoromethyl)phenyl)-8-oxatricyclo[3.2.1.02,4]octane-2-carboxamide] | > 30 µM | 0%
7 | COc1cc([C@@]23C[C@]2(C(=O)Nc2ccc(C)c(C(F)(F)F)c2)[C@H]2C[C@H](O)[C@@H]3O2)ccn1 (racemic) [Example 28, rac-(1R,2R,4S,5R,6S)-6-hydroxy-4-(2-methoxypyridin-4-yl)-N-(4-methyl-3-(trifluoromethyl)phenyl)-8-oxatricyclo[3.2.1.02,4]octane-2-carboxamide] | > 30 µM | 13%
8 | COc1cc([C@@]23C[C@]2(C(=O)Nc2cc(C)cc(C(F)(F)F)c2)[C@H]2C[C@H](O)[C@@H]3O2)ccn1 (racemic) [Example 29, rac-(1R,2R,4S,5R,6S)-6-hydroxy-4-(2-methoxypyridin-4-yl)-N-(3-methyl-5-(trifluoromethyl)phenyl)-8-oxatricyclo[3.2.1.02,4]octane-2-carboxamide] | 10 µM | 74%
9 | COc1cc([C@@]23C[C@]2(C(=O)Nc2cc(C(F)(F)F)ccc2C)[C@H]2C[C@H](O)[C@@H]3O2)ccn1 (racemic) [Example 30, rac-(1R,2R,4S,5R,6S)-6-hydroxy-4-(2-methoxypyridin-4-yl)-N-(2-methyl-5-(trifluoromethyl)phenyl)-8-oxatricyclo[3.2.1.02,4]octane-2-carboxamide] | > 30 µM | 27%
10 | COc1cc([C@@]23C[C@]2(C(=O)Nc2cccc(C(F)(F)F)c2F)[C@H]2C[C@H](O)[C@@H]3O2)ccn1 (racemic) [Example 31, rac-(1R,2R,4S,5R,6S)—N-(2-fluoro-3-(trifluoromethyl)phenyl)-6-hydroxy-4-(2-methoxypyridin-4-yl)-8-oxatricyclo[3.2.1.02,4]octane-2-carboxamide] | > 30 µM | 15%
11 | COc1cc([C@@]23C[C@]2(C(=O)Nc2ccc(F)c(C(F)(F)F)c2)[C@H]2C[C@H](O)[C@@H]3O2)ccn1 (racemic) [Example 32, rac-(1R,2R,4S,5R,6S)—N-(4-fluoro-3-(trifluoromethyl)phenyl)-6-hydroxy-4-(2-methoxypyridin-4-yl)-8-oxatricyclo[3.2.1.02,4]octane-2-carboxamide] | > 30 µM | 4%
12 | COc1cc([C@@]23C[C@]2(C(=O)Nc2cc(C(F)(F)F)ccc2F)[C@H]2C[C@H](O)[C@@H]3O2)ccn1 (racemic) [Example 33, rac-(1R,2R,4S,5R,6S)—N-(2-fluoro-5-(trifluoromethyl)phenyl)-6-hydroxy-4-(2-methoxypyridin-4-yl)-8-oxatricyclo[3.2.1.02,4]octane-2-carboxamide] | > 30 µM | 12%
13 | COc1cc([C@@]23C[C@]2(C(=O)Nc2ccc(OC)c(C(F)(F)F)c2)[C@H]2C[C@H](O)[C@@H]3O2)ccn1 (racemic) [Example 34, rac-(1R,2R,4S,5R,6S)-6-hydroxy-N-(4-methoxy-3-(trifluoromethyl)phenyl)-4-(2-methoxypyridin-4-yl)-8-oxatricyclo[3.2.1.02,4]octane-2-carboxamide] | > 30 µM | 0%
14 | COc1cc(NC(=O)[C@]23C[C@@]2(c2ccnc(OC)c2)[C@H]2O[C@@H]3C[C@@H]2O)cc(C(F)(F)F)c1 (racemic) [Example 35, rac-(1R,2R,4S,5R,6S)-6-hydroxy-N-(3-methoxy-5-(trifluoromethyl)phenyl)-4-(2-methoxypyridin-4-yl)-8-oxatricyclo[3.2.1.02,4]octane-2-carboxamide] | > 30 µM | 0%
15 | COc1cc([C@@]23C[C@]2(C(=O)Nc2cc(C(F)(F)F)ccc2OC)[C@H]2C[C@H](O)[C@@H]3O2)ccn1 (racemic) [Example 36, rac-(1R,2R,4S,5R,6S)-6-hydroxy-N-(2-methoxy-5-(trifluoromethyl)phenyl)-4-(2-methoxypyridin-4-yl)-8-oxatricyclo[3.2.1.02,4]octane-2-carboxamide] | 18 µM | 65%
16 | COc1cc([C@@]23C[C@]2(C(=O)Nc2cc(C(F)(F)F)cc(C(F)(F)F)c2)[C@H]2C[C@H](O)[C@@H]3O2)ccn1 (racemic) [Example 37, rac-(1R,2R,4S,5R,6S)—N-(3,5-bis(trifluoromethyl)phenyl)-6-hydroxy-4-(2-methoxypyridin-4-yl)-8-oxatricyclo[3.2.1.02,4]octane-2-carboxamide] | > 30 µM | 0%
17 | COc1cc([C@@]23C[C@]2(C(=O)Nc2ccc(C#N)c(C(F)(F)F)c2)[C@H]2C[C@H](O)[C@@H]3O2)ccn1 (racemic) [Example 38, rac-(1R,2R,4S,5R,6S)—N-(4-cyano-3-(trifluoromethyl)phenyl)-6-hydroxy-4-(2-methoxypyridin-4-yl)-8-oxatricyclo[3.2.1.02,4]octane-2-carboxamide] | 24 µM | 71%
18 | COc1cc([C@@]23C[C@]2(C(=O)Nc2cc(C(F)(F)F)ccc2C#N)[C@H]2C[C@H](O)[C@@H]3O2)ccn1 (racemic) [Example 39, rac-(1R,2R,4S,5R,6S)—N-(2-cyano-5-(trifluoromethyl)phenyl)-6-hydroxy-4-(2-methoxypyridin-4-yl)-8-oxatricyclo[3.2.1.02,4]octane-2-carboxamide] | 0.081 µM | 92%
19 | Cn1cc([C@@]23C[C@]2(C(=O)Nc2ccc(C(F)(F)F)c(Cl)c2)[C@H]2C[C@H](O)[C@@H]3O2)c(C(F)(F)F)n1 (racemic) [Example 40, rac-(1R,2R,4S,5R,6S)—N-(3-chloro-4-(trifluoromethyl)phenyl)-6-hydroxy-4-(1-methyl-3-(trifluoromethyl)-1H-pyrazol-4-yl)-8-oxatricyclo[3.2.1.02,4]octane-2-carboxamide] | 9.5 µM | 91%
20 | Cn1cc([C@@]23C[C@]2(C(=O)Nc2ccc(C(F)(F)F)c(F)c2)[C@H]2C[C@H](O)[C@@H]3O2)c(C(F)(F)F)n1 (racemic) [Example 41, rac-(1R,2R,4S,5R,6S)-N-(3-fluoro-4-(trifluoromethyl)phenyl)-6-hydroxy-4-(1-methyl-3-(trifluoromethyl)-1H-pyrazol-4-yl)-8-oxatricyclo[3.2.1.02,4]octane-2-carboxamide] | 3.1 µM | 84%
21 | Cn1cc([C@@]23C[C@]2(C(=O)Nc2ccc(C(F)(F)F)cc2)[C@H]2C[C@H](O)[C@@H]3O2)c(C(F)(F)F)n1 (racemic) [Example 42, rac-(1R,2R,4S,5R,6S)-6-hydroxy-4-(1-methyl-3-(trifluoromethyl)-1H-pyrazol-4-yl)-N-(4-(trifluoromethyl)phenyl)-8-oxatricyclo[3.2.1.02,4]octane-2-carboxamide] | > 30 µM | 46%
